From patent publication US20170066759A1, “AROMATIC 5-MEMBERED HETEROCYCLIC DERIVATIVE HAVING TRPV4-INHIBITING ACTIVITY” (Shionogi & Co., Ltd., priority 2012, published 2017)

Columns and labels:
[1] = system: Salmonella typhimurium TA98 strain, TA100 strain; assay: Test Example 7: FAT test (mutagenicity); design: key: (−) means that mutagenicity is negative; (+) is positive; conditions: TA98 and TA100 strains, non-metabolism activating and metabolism activating conditions
Description: Mutagenicity of a compound of the present invention was evaluated.
[…] of freezing-stored rat typhoid bacillus (Salmonella typhimurium TA98 strain, TA100 strain) was inoculated on 10 mL of a liquid nutrient medium (2.5% Oxoid nutrient broth No. 2), and this was cultured before shaking at 37° C. for 10 hours. 9 mL of a bacterial solution of the TA98 strain was centrifuged (2000×g, 10 minutes) to remove a culturing solution. The bacteria was suspended in 9 mL of a Micro F buffer (K2HPO4: 3.5 g/L, KH2PO4: 1 g/L, (NH4)2SO4: 1 g/L, trisodium citrate dehydrate: 0.25 g/L, MgSO4*7H2O: 0.1 g/L), the suspension was added to 110 mL of an Exposure medium (Micro F buffer containing Biotin: 8 μg/mL, histidine: 0.2 μg/mL, glucose: 8 mg/mL). The TA100 strain was added to 120 mL of the Exposure medium relative to 3.16 mL of the bacterial solution to prepare a test bacterial solution. […] Since a well containing a bacterium which has obtained the proliferation ability by mutation of an amino acid (histidine) synthesizing enzyme gene turns from purple to yellow due to a pH change, the bacterium proliferation well which has turned to yellow in 48 wells per dose was counted, and was assessed by comparing with a negative control group. […]

[2] = target: T1, human TRPV4 (hTRPV4/CHO cells) (Homo sapiens, UniProt Q9HBA0); assay: Test Example 1: TRPV4 inhibitory activity (IC50 value), 4α-PDD stimulation, Fluo4 calcium fluorescence (FLIPR TETRA); format: cell-based; conditions: Test Example 1, 4α-PDD stimulation, read-out: Test 1 IC50
T1 construct: expressed in transfected cells; host or cells: CHO-K1
T1 sequence (Q9HBA0 whole entry): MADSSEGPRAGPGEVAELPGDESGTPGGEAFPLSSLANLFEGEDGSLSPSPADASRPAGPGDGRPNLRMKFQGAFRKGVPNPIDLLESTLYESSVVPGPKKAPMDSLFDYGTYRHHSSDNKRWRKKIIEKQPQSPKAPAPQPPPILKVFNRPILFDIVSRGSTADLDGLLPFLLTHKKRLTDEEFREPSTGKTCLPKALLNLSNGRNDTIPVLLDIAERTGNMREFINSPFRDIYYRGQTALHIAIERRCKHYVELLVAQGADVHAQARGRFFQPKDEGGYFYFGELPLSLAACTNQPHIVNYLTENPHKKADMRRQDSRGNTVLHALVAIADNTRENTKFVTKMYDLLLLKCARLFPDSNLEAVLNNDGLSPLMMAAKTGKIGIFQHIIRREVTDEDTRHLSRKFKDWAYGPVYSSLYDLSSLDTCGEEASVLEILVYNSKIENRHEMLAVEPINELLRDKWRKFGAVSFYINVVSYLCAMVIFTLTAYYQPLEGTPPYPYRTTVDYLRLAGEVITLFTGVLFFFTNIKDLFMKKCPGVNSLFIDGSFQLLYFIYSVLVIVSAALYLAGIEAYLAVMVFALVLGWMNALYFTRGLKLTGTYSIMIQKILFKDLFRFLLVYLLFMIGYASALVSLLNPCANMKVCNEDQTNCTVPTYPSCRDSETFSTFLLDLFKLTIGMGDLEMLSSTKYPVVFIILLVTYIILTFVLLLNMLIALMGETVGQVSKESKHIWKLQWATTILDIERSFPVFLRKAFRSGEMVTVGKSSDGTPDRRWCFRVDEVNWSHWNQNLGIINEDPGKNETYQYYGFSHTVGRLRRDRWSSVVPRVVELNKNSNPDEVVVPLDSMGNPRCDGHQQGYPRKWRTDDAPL

CYP2C19 = target: T2, CYP2C19 (Homo sapiens, UniProt P33261); assay: Test Example 6: CYP inhibition test, mephenytoin 4′-hydroxylation (CYP2C19); format: in vitro ADME; conditions: pooled human hepatic microsome, 50 μmol/L S-mephenytoin
T2 construct: enzyme, pooled human hepatic microsome 0.2 mg protein/mL; from tissue; host or cells: pooled human liver microsomes
T2 sequence (P33261 whole entry): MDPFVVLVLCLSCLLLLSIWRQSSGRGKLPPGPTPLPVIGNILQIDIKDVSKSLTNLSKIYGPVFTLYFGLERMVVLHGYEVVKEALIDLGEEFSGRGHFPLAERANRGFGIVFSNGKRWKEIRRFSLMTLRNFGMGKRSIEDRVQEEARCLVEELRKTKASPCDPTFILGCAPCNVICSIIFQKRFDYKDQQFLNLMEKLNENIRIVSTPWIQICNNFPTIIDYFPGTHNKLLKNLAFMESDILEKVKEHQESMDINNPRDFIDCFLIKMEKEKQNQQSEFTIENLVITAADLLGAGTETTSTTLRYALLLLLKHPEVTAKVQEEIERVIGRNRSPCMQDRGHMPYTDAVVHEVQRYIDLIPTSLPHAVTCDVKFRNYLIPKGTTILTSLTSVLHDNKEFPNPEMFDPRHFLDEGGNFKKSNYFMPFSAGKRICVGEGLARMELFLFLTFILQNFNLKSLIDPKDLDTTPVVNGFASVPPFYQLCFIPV
Description: (§1) Test Example 6 CYP Inhibition Test […] The reaction conditions were as follows: substrate, 0.5 μmol/L ethoxyresorufin (CYP1A2), 100 μmol/L tolbutamide (CYP2C9), 50 μmol/L S-mephenytoin (CYP2C19), 5 μmol/L dextromethorphan (CYP2D6), 1 μmol/L terfenedine (CYP3A4); reaction time, 15 minutes; reaction temperature, 37° C.; enzyme, pooled human hepatic microsome 0.2 mg protein/mL; concentration of the compound of the present invention, 1, 5, 10, 20 μmol/L (four points). Each five kinds of substrates, human hepatic microsome, and the compound of the present invention in 50 mmol/L Hepes buffer as a reaction solution were added to a 96-well plate at the composition as described above. NADPH, as a cofactor was added to initiate metabolism reactions as markers and, after the incubation at 37° C. for 15 minutes, a methanol/acetonitrile=1/1 (v/v) solution was added to stop the reaction. After the centrifugation at 3000 rpm for 15 minutes, resorufin (CYP1A2 metabolite) in the supernatant was quantified by a fluorescent multilabel counter and toltributamide hydroxide (CYP2[…] metabolite), mephenytoin 4' hydroxide (CYP2C19 metabolite), […], and terfenadine alcohol (CYP3A4 metabolite) were quantified by LC/MS/MS. Addition of only DMSO being a solvent dissolving the compound of the present invention to a reaction system was adopted as a control (100%). Remaining activity (%) was calculated at each concentration of the compound of the present invention added as the solution and IC50 was calculated by reverse presumption by a logistic model using a concentration and an inhibition rate.

CYP2C9 = target: T3, CYP2C9 (Homo sapiens, UniProt P11712); assay: Test Example 6: CYP inhibition test, tolbutamide methyl-hydroxylation (CYP2C9); format: in vitro ADME; conditions: pooled human hepatic microsome, 100 μmol/L tolbutamide
T3 construct: enzyme, pooled human hepatic microsome 0.2 mg protein/mL; from tissue; host or cells: pooled human liver microsomes
T3 sequence (P11712 whole entry): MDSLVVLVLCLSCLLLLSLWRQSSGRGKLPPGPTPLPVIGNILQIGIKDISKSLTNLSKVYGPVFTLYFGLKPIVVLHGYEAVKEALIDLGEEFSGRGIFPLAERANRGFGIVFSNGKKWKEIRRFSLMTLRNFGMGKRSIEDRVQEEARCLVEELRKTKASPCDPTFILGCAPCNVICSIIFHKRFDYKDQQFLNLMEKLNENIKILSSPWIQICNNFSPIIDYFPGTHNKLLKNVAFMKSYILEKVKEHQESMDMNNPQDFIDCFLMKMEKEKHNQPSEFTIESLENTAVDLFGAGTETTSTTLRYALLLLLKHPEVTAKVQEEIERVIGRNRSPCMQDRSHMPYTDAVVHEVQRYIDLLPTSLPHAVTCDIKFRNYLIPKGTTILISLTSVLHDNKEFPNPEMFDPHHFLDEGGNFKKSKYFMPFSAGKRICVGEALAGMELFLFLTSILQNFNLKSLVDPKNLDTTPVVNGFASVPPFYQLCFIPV
Description: as §1

CYP2D6 = target: T4, CYP2D6 (Homo sapiens, UniProt P10635); assay: Test Example 6: CYP inhibition test, dextromethorphan O-demethylation (CYP2D6); format: in vitro ADME; conditions: pooled human hepatic microsome, 5 μmol/L dextromethorphan
T4 construct: enzyme, pooled human hepatic microsome 0.2 mg protein/mL; from tissue; host or cells: pooled human liver microsomes
T4 sequence (P10635 whole entry): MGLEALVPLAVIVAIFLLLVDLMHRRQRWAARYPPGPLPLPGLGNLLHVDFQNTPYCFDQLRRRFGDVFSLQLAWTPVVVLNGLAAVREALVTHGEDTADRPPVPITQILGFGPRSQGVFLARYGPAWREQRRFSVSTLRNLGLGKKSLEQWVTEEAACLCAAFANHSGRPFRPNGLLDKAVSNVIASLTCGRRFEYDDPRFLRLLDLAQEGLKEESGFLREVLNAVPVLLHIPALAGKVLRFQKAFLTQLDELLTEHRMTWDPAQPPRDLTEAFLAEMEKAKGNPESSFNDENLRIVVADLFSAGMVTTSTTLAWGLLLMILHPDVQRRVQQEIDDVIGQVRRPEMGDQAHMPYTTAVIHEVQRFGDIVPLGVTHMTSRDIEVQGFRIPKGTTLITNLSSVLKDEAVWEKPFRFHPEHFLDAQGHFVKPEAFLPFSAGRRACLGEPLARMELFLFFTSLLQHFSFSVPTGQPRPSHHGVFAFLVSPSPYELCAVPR
Description: as §1

[3] = Test Example 11: BA test (oral absorbability); format: in vivo; conditions: plasma; Mouse, oral administration 1 mg/kg
Description: Materials and methods for experiments to evaluate oral absorbability
(1) Experimental animals: rats or mice were used. (2) Breeding condition: rats or mice were allowed free access to solid feed and sterilized tap water (3) Setting of dosage and grouping: Oral administration and intravenous administration were performed with the predetermined dosage. Grouping was set as below. (Dosage varied depending on each compound)
Oral administration 1 to 30 mg/kg (n=2 to 3)
Intravenous administration 0.5 to 10 mg/kg (n=2 to 3)
(4) Preparation of administered liquid: Oral administration was performed using a solution or a suspension. Intravenous administration was performed after solubilization. (5) Method of Administration: In oral administration, compulsory administration to the stomach was conducted using an oral sonde. […] (6) Evaluation items: Blood was chronologically collected, and then concentration of a compound of the present invention in blood plasma was measured using a LC/MS/MS. […]
(7) Statistical analysis: With regard to a shift in plasma concentration of the compound of the present invention, the area under the plasma concentration-time curve (AUC) was calculated using a nonlinear least-squares program, WinNonlin (a registered trademark). Bioavailability (BA) was calculated from the AUCs of the oral administration group and the intravenous administration group. […]

CYP3A4 = target: T5, CYP3A4 (Homo sapiens, UniProt P08684); assay: Test Example 6: CYP inhibition test, terfenedine hydroxylation (CYP3A4); format: in vitro ADME; conditions: pooled human hepatic microsome, 1 μmol/L terfenedine
T5 construct: enzyme, pooled human hepatic microsome 0.2 mg protein/mL; from tissue; host or cells: pooled human liver microsomes
T5 sequence (P08684 whole entry): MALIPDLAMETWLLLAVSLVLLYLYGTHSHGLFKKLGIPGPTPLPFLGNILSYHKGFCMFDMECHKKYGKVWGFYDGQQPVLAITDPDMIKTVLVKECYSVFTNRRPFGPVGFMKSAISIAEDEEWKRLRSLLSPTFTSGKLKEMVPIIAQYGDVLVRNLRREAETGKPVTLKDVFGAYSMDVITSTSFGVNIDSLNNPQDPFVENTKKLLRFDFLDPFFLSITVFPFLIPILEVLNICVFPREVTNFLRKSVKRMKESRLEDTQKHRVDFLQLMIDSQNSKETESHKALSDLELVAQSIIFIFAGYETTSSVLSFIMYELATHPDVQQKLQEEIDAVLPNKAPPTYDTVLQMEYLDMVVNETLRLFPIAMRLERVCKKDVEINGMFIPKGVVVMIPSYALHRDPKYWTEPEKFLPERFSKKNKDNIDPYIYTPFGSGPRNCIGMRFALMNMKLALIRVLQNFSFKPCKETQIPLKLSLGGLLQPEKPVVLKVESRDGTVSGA
Description: as §1

IC50 (CYP2C19) | IC50 (CYP2C9) | IC50 (CYP2D6) | bioavailability [3] | IC50 (CYP3A4) | Structure (SMILES) | Mutagenicity (FAT test) [1] | IC50 [2]
 |  |  |  |  | Cc1nc(C)c(-c2csc(NC(=O)C3CCC(F)(F)C3)n2)s1 (stereo not shown) [Compound I-18] | (−) | 0.1 to 1 µM
> 20 µM | > 20 µM | > 20 µM | 54.6% | > 20 µM | Cc1nc(C)c(-c2csc(NC(=O)Cc3ccc(S(C)(=O)=O)cc3)n2)s1 [Compound I-17] |  | 
